In patent publication US20230069886A1, “AROMATIC SULPHONAMIDES DERIVATIVES THAT INHIBITS PDI A3, THEIR SYNTHESIS AND USE” (Uniwersytet Jagiellonski, priority 2020, published 2023):
Values after ≈ are worked out from the molar mass of the structure shown.

Legend:
[1] = system: MCF-7; test: MTT antiproliferative assay, 48 h, MCF-7; type: cell-based, human
Experimental: (§1) Anticancer activity of compounds of invention, PDI A3-inhibitors has been tested in vitro in classical antiproliferative assay in various cancer cells lines. Monolayer tumor cell lines MDA-MB-231 (human mammary breast adenocarcinoma), MCF-7 (human breast adenocarcinoma, estrogen-positive), HT-1080 (human fibrosarcoma) and Caco-2 (human colon adenocarcinoma) were cultured in standard medium DMEM (Dulbecco's modified Eagle's medium) (“Sigma”) supplemented with 10% foetal bovine serum (“Sigma”). About 2000-4000 cells per well (depending on line nature) were placed in 96-well plates and after 24 h compounds were added to the wells. Untreated cells were used as a control. The plates were incubated for 48 h, 37° C., 5% CO2. The number of surviving cells was determined using 3-(4,5-dimethylthiazol-2-yl)-2,5-diphenyltetrazolinium bromide (MTT). MTT-test: after incubating culture medium was removed and 200 μL fresh medium with 20 μL MTT (2 mg/mL in HBSS) was added in each well of the plate. After incubation (3 hr., 37° C., 5% CO2), the medium with MTT was removed and 200 μL DMSO were added at once to each sample. The samples were tested at 540 nm on Thermo Scientific Multiskan EX microplate photometer. The half-maximal inhibitory concentration (IC50) of each compound was calculated using Graph Pad Prism® 3.0.

[2] = molecular target: T1, PDI A3 (Homo sapiens, UniProt P30101); test: PDI A3 inhibition, insulin turbidimetric assay; type: biochemical; conditions: 10 ug/ml PDI A3, incubated 60 min at 37° C., turbidity at 650 nm; read-out: Inhibition of PDI A3 (EC 50)
T1 construct: purchased Mybiosource; host or cells: E. coli
T1 sequence (P30101 25-505): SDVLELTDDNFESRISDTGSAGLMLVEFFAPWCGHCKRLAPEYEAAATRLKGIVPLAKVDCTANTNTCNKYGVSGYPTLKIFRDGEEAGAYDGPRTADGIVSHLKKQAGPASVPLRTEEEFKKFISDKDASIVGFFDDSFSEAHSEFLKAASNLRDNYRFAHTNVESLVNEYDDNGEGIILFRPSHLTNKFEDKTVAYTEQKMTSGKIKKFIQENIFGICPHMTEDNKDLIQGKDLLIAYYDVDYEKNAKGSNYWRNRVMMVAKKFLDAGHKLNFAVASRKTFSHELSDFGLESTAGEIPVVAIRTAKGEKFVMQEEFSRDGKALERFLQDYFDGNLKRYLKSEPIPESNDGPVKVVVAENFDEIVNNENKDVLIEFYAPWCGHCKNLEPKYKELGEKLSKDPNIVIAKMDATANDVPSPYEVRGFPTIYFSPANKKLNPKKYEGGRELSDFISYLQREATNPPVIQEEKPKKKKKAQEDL
Experimental: The inhibitory effects compounds of invention on activity of PDIA3 was assess based on the insulin turbidimetric assay. Enzymatic activity of PDIA3 was confirmed by measuring the turbidity increase at 650 nm due to insulin reduction. The assay mixture was prepared by addition 10 ug/ml PDI A3 (E. coli recombinant protein; Mybiosource), […] phosphate buffer (pH7.6), 1 mM EDTA, 0.087 mM DTT and with or without tested compound and was incubated for 60 min, at 37° C. Reaction was started by addition of insulin and DTT. Final concentration of insulin and DTT in assay mixture were 0.15 mMv and 0.174 mMv, respectively. Turbidity was detected at 650 nm against reference samples without PDJs. The measurements were performed at 650 nm using 120-s recordings.

[3] = system: HT-29; test: Sulforhodamine B antiproliferative assay, 72 h, HT-29; type: cell-based, human; conditions: normal (21% of oxygen), 72 hours exposition
Experimental: (§2) Anticancer activity of selected compounds of invention, PDI A3-inhibitors has been also tested in vitro in antiproliferative assay in normoxic and hypoxic conditions as well in estrogen-stimulated cancer cells. In the experiment, cells were seeded on 96-well plates (Sarstedt, Germany) in appropriate culture medium at a density of 10^5 cells/mL 24 h before adding the tested compounds. Cells were treated with each compound in four concentrations in the range 0.1-100 μg/mL. […] After 72 h of compound treatment at 37° C., 5% CO2 humid atmosphere and in wo different oxygen level conditions: 21%—normal and <1%—hypoxia. In some experiments the MDA-MB-231 and MCF-7 cells were seeded with or without 200 nM estradiol and after 24 h the tested compounds were added. A previously described sulforhodamine B antiproliferative assay was used with minor modifications (Skehan P et al., 1990). Briefly, cells were fixed with 50 μL/well of 50% (w/v) trichloroacetic acid (Avantor Performance Materials, Gliwice, Poland). After 1 h incubation, plates were washed several times with tap water and 50 μL of 0.4% (w/v) solution of sulforhodamine B (Sigma-Aldrich, Germany) in 1% (v/v) acetic acid (Avantor Performance Materials, Gliwice, Poland) was added to each well. After 30 min incubation at room temperature, unbound dye was washed out with 1% (v/v) acetic acid, whereas bound dye was solubilized with 10 mM unbuffered TRIS (Avantor Performance Materials, Gliwice, Poland) solution. The entire procedure was performed using a BioTek EL-406 washing station (BioTek Instruments, USA). After additional 30 min, absorbance was read using a Biotek Hybrid H4 reader (BioTek Instruments, USA) at 540 nm wavelength. MTT assay was used alternatively for HL-60 cell line and in the experiment in which estrogens are added (specified in the table legend). Absorbance was measured using a Biotek Hybrid H4 reader at 570 nm wavelength for MTT assay.
(§3) Compounds at each concentration were tested in triplicate in a single experiment and each experiment was repeated at least three times independently. Results are presented as mean IC50±SD.

[4] = system: MDA-MB-231; test: Sulforhodamine B antiproliferative assay, 72 h, normal/hypoxia, MDA-MB-231; type: cell-based, human; conditions: 72 hours exposition; for IC50: Homo sapiens, MDA-MB-231
Experimental: as §2, §3

[5] = system: MCF-7; test: Sulforhodamine B antiproliferative assay, 72 h, normal/hypoxia, MCF-7; type: cell-based, human; conditions: for IC50 [μg/ml] MCF-7 hypoxia / IC50 [μg/ml] MCF-7 normal / IC50: 72 hours exposition; for IC50: Homo sapiens, MCF7
Experimental: as §2, §3

[6] = system: CaCo-2; test: MTT antiproliferative assay, 48 h, Caco-2; type: cell-based, human
Experimental: as §1

[7] = system: CaCo-2; test: Sulforhodamine B antiproliferative assay, 72 h, Caco-2; type: cell-based, human; conditions: normal (21% of oxygen), 72 hours exposition
Experimental: In the experiment, cells were seeded on 96-well plates (Sarstedt, Germany) in appropriate culture medium at a density of 10^5 cells/mL 24 h before adding the tested compounds. Cells were treated with each compound in four concentrations in the range 0.1-100 μg/mL. […] Briefly, cells were fixed with 50 μL/well of 50% (w/v) trichloroacetic acid (Avantor Performance Materials, Gliwice, Poland). After 1 h incubation, plates were washed several times with tap water and 50 μL of 0.4% (w/v) solution of sulforhodamine B (Sigma-Aldrich, Germany) in 1% (v/v) acetic acid (Avantor Performance Materials, Gliwice, Poland) was added to each well. After 30 min incubation at room temperature, unbound dye was washed out with 1% (v/v) acetic acid, whereas bound dye was solubilized with 10 mM unbuffered TRIS (Avantor Performance Materials, Gliwice, Poland) solution. […] After additional 30 min, absorbance was read using a Biotek Hybrid H4 reader (BioTek Instruments, USA) at 540 nm wavelength.

[8] = system: MDA-MB-231; test: MTT antiproliferative assay, 48 h, MDA-MB-231; type: cell-based, human; conditions: for IC50: Homo sapiens, MDA-MB-231, 48-hour exposition, read-out: Cytotoxicity, IC50, μM MDA-MB-231
Experimental: as §1

Structure (SMILES)	IC50 [μg/ml] HT-29 normal [3]	IC50 [μg/ml] MDA-MB-231 hypoxia ([4]; hypoxia (<1% of oxygen))	IC50 [μg/ml] MDA-MB-231 normal ([4]; normal (21% of oxygen))	IC50 [μg/ml] MCF-7 hypoxia ([5]; hypoxia (<1% of oxygen))	IC50 [μg/ml] MCF-7 normal ([5]; normal (21% of oxygen))	IC50 [8]	further results
CN(C)C(=O)C1CN1S(=O)(=O)c1cccc2cc(N(C)C)ccc12 (centres unmarked) [Compound C-3377, 1-[[6-(Dimethylamino)-1-naphthyl]sulfonyl]-N,N-dimethylaziridine-2-carboxamide]	–	–	–	–	–	–	IC50 ([1]; Homo sapiens, MCF7, 48-hour exposition, read-out: Cytotoxicity, IC50, μM MCF-7): 4.8 ± 0.1 µM; EC50 [2]: 4.3 µM
N.N.[Cl][Pt][Cl] [Cisplatin]	2.82 ± 0.6 µg/mL	3.1 ± 0.9 µg/mL	3.2 ± 0.5 µg/mL	1.3 ± 0.5 µg/mL	1.8 ± 0.3 µg/mL	–	–
COC(=O)C1CN1S(=O)(=O)c1ccc2cc(OC)ccc2c1 (centres unmarked) [Compound C-3327, Methyl 1-[(6-methoxy-2-naphthyl)sulfonyl]aziridine-2-carboxylate]	–	–	–	–	–	–	IC50 ([6]; Homo sapiens, Caco-2, 48-hour exposition, read-out: Cytotoxicity, IC50, μM CaCo-2): 150 ± 10 µM
O=C(C1CC1)N1CCN(Cn2sc3ccccc3c2=O)CC1 [LOC14]	12.6 ± 8.4 µg/mL (≈ 39.7 µM)	2.6 ± 0.5 µg/mL (≈ 8.19 µM)	2.8 ± 0.4 µg/mL (≈ 8.82 µM)	3.9 ± 0.3 µg/mL (≈ 12.3 µM)	4.4 ± 0.9 µg/mL (≈ 13.9 µM)	–	IC50 [μg/ml] Caco-2 normal [7]: 9.1 ± 3.4 µg/mL (≈ 28.7 µM)
COC(=O)C1CN1S(=O)(=O)c1ccc2cc(N(C)C)ccc2c1 (centres unmarked) [Compound C-3397, Methyl 1-[[6-(dimethylamino)-2-naphthyl]sulfonyl]aziridine-2-carboxylate]	–	–	–	–	–	38 ± 2 µM	–
CCCCCCc1ccc(S(=O)(=O)N2CC2C(=O)N2CCOCC2)cc1 (centres unmarked) [Compound C-3517, [1-(4-Hexylphenyl)sulfonylaziridin-2-yl]-morpholino-methanone]	–	–	–	–	–	12 ± 1 µM	–
COc1ccc(N2C(=O)/C(=C\c3ccc([N+](=O)[O-])s3)SC2=S)cc1 [CCF642]	0.4 ± 0.05 µg/mL (≈ 1.06 µM)	0.3 ± 0.2 µg/mL (≈ 0.793 µM)	0.3 ± 0.1 µg/mL (≈ 0.793 µM)	0.6 ± 0.6 µg/mL (≈ 1.59 µM)	0.7 ± 0.5 µg/mL (≈ 1.85 µM)	–	IC50 [μg/ml] Caco-2 normal [7]: 0.4 ± 0.1 µg/mL (≈ 1.06 µM)
CN(C)c1ccc2c(S(=O)(=O)N3CC3C(N)=O)cccc2c1 (centres unmarked) [Compound C-3459, 1-[[6-(Dimethylamino)-1-naphthyl]sulfonyl]aziridine-2-carboxamide]	–	–	–	–	–	–	melting point: 197 to 199 °C; Cytotoxicity, IC50, μM MCF-7 ([1]; 48-hour exposition): n.e.; EC50 [2]: 130 µM; Cytotoxicity, IC50, μM CaCo-2 ([6]; 48-hour exposition): n.e.; Cytotoxicity, IC50, μM MDA-MB-231 ([8]; 48-hour exposition): n.e.
COC(=O)C1CN1S(=O)(=O)c1ccccc1C (centres unmarked) [Compound C-3320, Methyl 1-(o-tolylsulfonyl)aziridine-2-carboxylate]	–	–	–	–	–	380 ± 15 µM	–
NC(=O)C1CN1S(=O)(=O)c1ccc([N+](=O)[O-])cc1 (centres unmarked) [Compound C-3216, 1-(4-Nitrophenyl)sulfonylaziridine-2-carboxamide]	–	–	–	–	–	–	IC50 ([3]; Homo sapiens, HT-29, read-out: IC50 [μg/ml] HT-29 normal): 5.6 ± 0.9 µg/mL (≈ 20.6 µM); IC50 ([4]; hypoxia (<1% of oxygen), read-out: IC50 [μg/ml] MDA-MB-231 hypoxia): 6.2 ± 3.7 µg/mL (≈ 22.9 µM); IC50 ([4]; normal (21% of oxygen), read-out: IC50 [μg/ml] MDA-MB-231 normal): 5 ± 1.4 µg/mL (≈ 18.4 µM); IC50 ([7]; Homo sapiens, Caco-2, read-out: IC50 [μg/ml] Caco-2 normal): 4.5 ± 0.8 µg/mL (≈ 16.6 µM); IC50 ([5]; hypoxia (<1% of oxygen), read-out: IC50 [μg/ml] MCF-7 hypoxia): 3.6 ± 0.3 µg/mL (≈ 13.3 µM); IC50 ([5]; normal (21% of oxygen), read-out: IC50 [μg/ml] MCF-7 normal): 3.7 ± 0.4 µg/mL (≈ 13.6 µM); Antiproliferative effect, normoxic versus hypoxic conditions ([5]; MCF-7 and MDA-MB-231, Table 3): comparable
